# Source: patent US10562857B2 (AFASCI, Inc., priority 2015, dated 2020)
# Experiments:
# [1] = biological target: Cav2.2 (N-type Ca channel) (Homo sapiens, UniProt Q00975); assay: Patch clamp of Cav2.2 N-type Ca channel; format: cell-based; conditions: Table 2
# [2] = tested on: DRG ion channels K+; assay: Potassium currents in DRG neurons, patch clamp; format: cell-based, rodent; conditions: Table 2
# Method: (§1) All the procedures related to animal handling were in strict accordance with NIH guidelines and IACUC approved protocols. Briefly, the spine was taken out and split into two halves from the middle line after sacrificing the mice by decapitation. […] The DRG neurons were minced with fine scissors and incubated at 35° C. for 50 min. […] Finally the cells were dispersed onto poly-1-ornithine-coated cover slips and maintained in a modified Krebs solution with streptomycin sulfate (0.2 mM), Penicillin G Sodium (0.3 mM), and Gentamycin (0.1 mM) at 21° C. […] All experiments were performed at room temperature (around 21° C.). Whole-cell currents were recorded using a MultiClamp 700B amplifier and analyzed offline with pCLAMP10.4 software (Molecular Devices, LLC, Sunnyvale Calif., USA). […] The internal solution was composed (in mM) of 125 CsCl, 10 HEPES (acid), 10 EGTA (ethylene glycol tetraacetic acid), 1 CaCl2, 1 MgCl2, 4 MgATP and 0.3 […] 7.3-7.4 adjusted with CsOH; osmolality verified as 295 mOsm/kg). Since the sodium ions were absent in the external solution, tetrodoctoxin was not needed. […] To record sodium (Na^+) currents in DRG neurons, the external solution used the modified Krebs solution specified above. […] To record potassium currents in DRG neurons, the external solution used the modified Kreb's solution specified above. The internal solution was composed (in mM) of 65 KCl, 80 KF, 5 KOH, 10 EGTA, 2 MgATP (pH 7.3-7.4 adjusted with KOH). Recording electrodes were fabricated using a P-87 puller (Sutter Instrument Co., Novato, Calif., USA). […] All reagents were purchased from Sigma unless specified otherwise. […] Selectivity among the three subtypes of the Cav3 T-type channel, and off-target effects on other key ion channels of the representative example compounds are presented in Table 2. Sodium and potassium channels in the rodent DRG neurons were recorded and tested as described above. The human ether-a-go-go-related gene (hERG) encodes the rapidly activating potassium channel (IKr) contributing to the repolarization of the cardiac action potential. The blockade of hERG can lead to a QT prolongation in the electrocardiogram known as long QT syndrome (Sanguinetti, et al., 1995). Therefore the representative example compounds in Table 2 were tested against the hERG channel.
# [3] = tested on: DRG ion channels Na+; assay: Sodium currents in DRG neurons, patch clamp; format: cell-based, rodent; conditions: Table 2
# Method: as §1
# [4] = biological target: T1, Cardiac Na+ channels (Homo sapiens, UniProt Q14524); assay: Cardiac sodium currents in human iPSC-derived cardiomyocytes; format: cell-based; conditions: for IC50: human iPSC cardiomyocytes; for inhibition at 3 µM: values in brackets, read-out: Cardiac Na+ (%) inh. at 3 μM
# T1 construct: host or cells: human iPSC-derived cardiomyocytes
# T1 sequence (Q14524 whole entry): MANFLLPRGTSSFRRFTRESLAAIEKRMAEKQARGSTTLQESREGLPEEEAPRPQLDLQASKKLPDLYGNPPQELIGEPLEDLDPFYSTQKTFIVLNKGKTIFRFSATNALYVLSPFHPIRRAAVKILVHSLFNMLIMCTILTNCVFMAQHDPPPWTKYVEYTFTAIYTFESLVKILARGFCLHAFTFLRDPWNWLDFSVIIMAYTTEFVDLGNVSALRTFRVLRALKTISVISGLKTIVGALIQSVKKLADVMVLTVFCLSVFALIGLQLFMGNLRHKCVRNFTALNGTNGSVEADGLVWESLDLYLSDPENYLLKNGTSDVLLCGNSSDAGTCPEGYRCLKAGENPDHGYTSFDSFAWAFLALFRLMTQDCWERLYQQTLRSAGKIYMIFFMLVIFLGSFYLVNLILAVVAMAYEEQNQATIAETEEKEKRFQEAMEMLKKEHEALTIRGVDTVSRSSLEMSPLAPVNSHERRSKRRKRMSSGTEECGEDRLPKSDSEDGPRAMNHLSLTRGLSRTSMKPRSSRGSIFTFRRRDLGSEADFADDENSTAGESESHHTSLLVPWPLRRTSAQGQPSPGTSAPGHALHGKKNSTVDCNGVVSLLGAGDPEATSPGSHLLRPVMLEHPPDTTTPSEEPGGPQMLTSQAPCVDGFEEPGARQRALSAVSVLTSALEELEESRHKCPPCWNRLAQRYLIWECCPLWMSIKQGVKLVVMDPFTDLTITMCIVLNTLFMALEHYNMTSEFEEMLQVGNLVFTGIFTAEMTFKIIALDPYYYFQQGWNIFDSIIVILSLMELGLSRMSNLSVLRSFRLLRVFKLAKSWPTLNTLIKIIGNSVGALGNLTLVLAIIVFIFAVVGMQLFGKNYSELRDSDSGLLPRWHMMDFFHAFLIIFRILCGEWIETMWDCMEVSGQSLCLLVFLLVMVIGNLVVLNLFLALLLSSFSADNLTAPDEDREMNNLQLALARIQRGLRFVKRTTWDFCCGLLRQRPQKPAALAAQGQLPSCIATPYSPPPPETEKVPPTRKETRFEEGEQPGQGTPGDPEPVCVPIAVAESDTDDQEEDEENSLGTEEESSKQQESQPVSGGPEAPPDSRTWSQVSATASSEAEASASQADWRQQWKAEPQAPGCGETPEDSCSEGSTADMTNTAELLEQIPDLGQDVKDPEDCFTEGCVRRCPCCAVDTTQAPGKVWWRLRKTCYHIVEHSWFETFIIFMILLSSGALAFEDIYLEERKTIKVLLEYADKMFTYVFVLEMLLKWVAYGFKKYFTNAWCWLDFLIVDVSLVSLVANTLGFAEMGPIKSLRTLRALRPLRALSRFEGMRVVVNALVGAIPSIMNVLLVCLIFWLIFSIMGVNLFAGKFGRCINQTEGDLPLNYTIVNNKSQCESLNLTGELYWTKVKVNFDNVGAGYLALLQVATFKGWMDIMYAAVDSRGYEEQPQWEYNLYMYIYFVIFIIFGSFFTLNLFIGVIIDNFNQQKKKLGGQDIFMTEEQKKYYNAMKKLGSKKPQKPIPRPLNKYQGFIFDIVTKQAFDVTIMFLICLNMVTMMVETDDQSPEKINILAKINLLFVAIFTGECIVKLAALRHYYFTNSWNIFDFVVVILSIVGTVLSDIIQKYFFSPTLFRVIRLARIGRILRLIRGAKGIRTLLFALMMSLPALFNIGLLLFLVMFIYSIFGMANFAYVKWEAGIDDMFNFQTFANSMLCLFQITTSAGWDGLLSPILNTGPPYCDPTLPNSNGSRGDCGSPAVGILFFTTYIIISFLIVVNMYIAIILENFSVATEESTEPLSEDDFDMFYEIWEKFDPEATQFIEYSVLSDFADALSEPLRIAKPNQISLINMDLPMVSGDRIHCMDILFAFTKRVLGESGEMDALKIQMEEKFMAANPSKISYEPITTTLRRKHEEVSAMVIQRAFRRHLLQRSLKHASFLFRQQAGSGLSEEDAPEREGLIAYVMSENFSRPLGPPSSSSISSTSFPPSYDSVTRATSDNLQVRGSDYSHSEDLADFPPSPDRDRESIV
# Method: Cardiac sodium channels play a critical role in heart contraction. Inhibition of these sodium channels could potentially cause severe unwanted side effects. Therefore the representative example compounds in Table 2 were tested in cardiac sodium channels. Cardiomyocytes derived from human induced pluripotent stem cells (iPSC-CM) were obtained from Axol Bioscience Ltd (Cambridge, UK). Cells were thawed and grown on matrigel coated glass coverslips in Cardiomyocyte Maintenance Medium (Axol Bioscience). […] The internal solution was composed (in mM) of 120 KF, 10 HEPES, 11 EGTA, 1 CaCl2, 1 MgCl2, 10 TEA-Cl (pH 7.2 adjusted with KOH). Sodium currents were recorded at a holding potential of −100 mV and depolarized to −20 mV. Cells were incubated with example compounds until currents reached a steady-state level. To determine IC50 values, example compounds were applied gradually from low to high concentrations. The current responses were normalized to the control, percent inhibition was calculated and a sigmoidal dose response curve was plotted to determine IC50 values as described above.
Structure (SMILES),IC50 [1] [µM],IC50 [2] [µM],IC50 [3] [µM],IC50 [4] [µM],inhibition at 3 µM [4] [%]
"CC(C)(C)NC(=O)CN1CCC2(CC1)C[C@H]2NC(=O)c1cc(F)cc(C(F)(F)F)c1 (single isomer, unassigned) [Example 130, (R)—N-(6-(2-(tert-Butylamino)-2-oxoethyl)-6-azaspiro[2.5]octan-1-yl)-3-fluoro-5-(trifluoromethyl)benzamide or (S)—N-(6-(2-(tert-Butylamino)-2-oxoethyl)-6-azaspiro[2.5]octan-1-yl)-3-fluoro-5-(trifluoromethyl)benzamide]",> 30,> 100,> 100,31.4,
"CC(C)(C)NC(=O)CN1CCC2(CC1)C[C@H]2NC(=O)c1cc(Cl)cc(Cl)c1 (single isomer, unassigned) [Example 57, (R)—N-(6-(2-(tert-Butylamino)-2-oxoethyl)-6-azaspiro[2.5]octan-1-yl)-3,5-dichlorobenzamide or (S)—N-(6-(2-(tert-Butylamino)-2-oxoethyl)-6-azaspiro[2.5]octan-1-yl)-3,5-dichlorobenzamide]",> 30,> 100,37.2,50.9,
"CC(C)(C)NC(=O)CN1CCC2(CC1)CC2NC(=O)c1cc(F)cc(Cl)c1 (single isomer, unassigned) [Example 128, (S)—N-(6-(2-(tert-Butylamino)-2-oxoethyl)-6-azaspiro[2.5]octan-1-yl)-3-chloro-5-fluorobenzamide or (R)—N-(6-(2-(tert-Butylamino)-2-oxoethyl)-6-azaspiro[2.5]octan-1-yl)-3-chloro-5-fluorobenzamide]",> 10,> 100,> 100,83.5,
"CC(C)(C)NC(=O)CN1CCC2(CC1)C[C@H]2C(=O)Nc1cc(C(F)(F)F)cc(C(F)(F)F)c1 (single isomer, unassigned) [Example 132, (R)—N-(3,5-Bis(trifluoromethyl)phenyl)-6-(2-(tert-butylamino)-2-oxoethyl)-6-azaspiro[2.5]octane-1-carboxamide or (S)—N-(3,5-Bis(trifluoromethyl)phenyl)-6-(2-(tert-butylamino)-2-oxoethyl)-6-azaspiro[2.5]octane-1-carboxamide]",3.1,> 100,14.3,51.6,
"CC(C)(C)CCN1CCC2(CC1)C[C@H]2NC(=O)c1cc(C(F)(F)F)cc(C(F)(F)F)c1 (single isomer, unassigned) [Example 146, (R)—N-(6-(3,3-dimethylbutyl)-6-azaspiro[2.5]octan-1-yl)-3,5-bis(trifluoromethyl)benzamide or (S)—N-(6-(3,3-dimethylbutyl)-6-azaspiro[2.5]octan-1-yl)-3,5-bis(trifluoromethyl)benzamide]",2.5,> 100,8.7,27.8,
"CC(C)(C)NC(=O)CN1CCC2(CC1)C[C@H]2NC(=O)c1cc(F)cc(Cl)c1 (single isomer, unassigned) [Example 129, (R)—N-(6-(2-(tert-Butylamino)-2-oxoethyl)-6-azaspiro[2.5]octan-1-yl)-3-chloro-5-fluorobenzamide or (S)—N-(6-(2-(tert-Butylamino)-2-oxoethyl)-6-azaspiro[2.5]octan-1-yl)-3-chloro-5-fluorobenzamide]",> 30,> 100,> 100,,
"CC(C)(C)NC(=O)CN1CCC2(CC1)CC2NC(=O)c1cc(F)cc(Cl)c1 (stereo not drawn) [Example 17, N-(6-(2-(tert-Butylamino)-2-oxoethyl)-6-azaspiro[2.5]octan-1-yl)-3-chloro-5-fluorobenzamide]",> 30,> 100,> 100,,
"CC(C)(C)NC(=O)CN1CCC(CNC(=O)c2cc(F)cc(Cl)c2)CC1 [Z944, reference compound]",> 30,> 30,> 30,21.4,
"CC(C)(C)CCN1C[C@@H]2[C@@H](CNC(=O)c3cc(Cl)cc(Cl)c3)[C@@H]2C1 [ML218, 3,5-Dichloro-N-[[(1α,5α,6-exo,6α)-3-(3,3-dimethylbutyl)-3-azabicyclo[3.1.0]hex-6-yl]methyl]benzamide, reference compound]",20.7,79.7,55.6,39.8,
"CC(C)(C)CCN1CCC2(CC1)C[C@H]2NC(=O)c1cc(C(F)(F)F)ccc1Cl (single isomer, unassigned) [Example 147, (R)-2-Chloro-N-(6-(3,3-dimethylbutyl)-6-azaspiro[2.5]octan-1-yl)-5-(trifluoromethyl)benzamide or (S)-2-Chloro-N-(6-(3,3-dimethylbutyl)-6-azaspiro[2.5]octan-1-yl)-5-(trifluoromethyl)benzamide]",5.6,> 100,14.3,43,
"CC(C)(C)NC(=O)CN1CCC2(CC1)C[C@H]2NC(=O)C12CC3CC(CC(C3)C1)C2 (single isomer, unassigned) [Example 145, N—((R)-6-(2-(tert-butylamino)-2-oxoethyl)-6-azaspiro[2.5]octan-1-yl)adamantane-1-carboxamide or N—((S)-6-(2-(tert-butylamino)-2-oxoethyl)-6-azaspiro[2.5]octan-1-yl)adamantane-1-carboxamide]",15.6,> 30,> 30,,0
"CC(C)(C)CCN1CCC2(CC1)CC2NC(=O)c1cc(F)cc(Cl)c1 (stereo not drawn) [Example 28, 3-Chloro-N-(6-(3,3-dimethylbutyl)-6-azaspiro[2.5]octan-1-yl)-5-fluorobenzamide]",9.4,~100,23.4,37.2,
"CC(C)(C)NC(=O)CN1CCC2(CC1)CC2C(=O)Nc1cc(F)cc(C(F)(F)F)c1 (stereo not drawn) [Example 141, 6-(2-(tert-Butylamino)-2-oxoethyl)-N-(3-fluoro-5-(trifluoromethyl)phenyl)-6-azaspiro[2.5]octane-1-carboxamide]",5.1,> 30,> 30,,28
"CC(C)(C)NC(=O)CN1CCC2(CC1)C[C@H]2NC(=O)c1cc(C(F)(F)F)cc(C(F)(F)F)c1 (single isomer, unassigned) [Example 144, ((R)—N-(6-(2-(tert-butylamino)-2-oxoethyl)-6-azaspiro[2.5]octan-1-yl)-3,5-bis(trifluoromethyl)benzamide or (S)—N-(6-(2-(tert-butylamino)-2-oxoethyl)-6-azaspiro[2.5]octan-1-yl)-3,5-bis(trifluoromethyl)benzamide]",12.3,> 30,34.4,19.2,
